Test results published in patent publication US9446011B2, “Anticonvulsant combination therapy” (UCB Pharma GmbH, priority 2006, dated 2016).
Entries after “also recorded” stand apart in the source; their conditions may differ.

Columns and labels:
[1] = tested on: 6 Hz-induced seizures; assay: 6 Hz seizure test in mice with isobolographic analysis; conditions: for doses for antiseizure effect compared with those needed in the MES test: MES data obtained in other studies; for anticonvulsant effects against 6 Hz seizure: drug administered alone, i.p., mice
[2] = tested on: epileptic seizures; assay: ED50 values in various models of the rat and the mouse; type: in vivo; conditions: i.p.
Description: The skilled person may determine the ED50 values by methods known in the art. It is preferred that the ED50 values are determined by preclinical or/and clinical trials. Published ED50 values may also be used. […] FIGS. 12 and 13 disclose specific ED50 values obtained in various models of the rat and the mouse. A person skilled in the art knows that in a particular model, among different species, ED50 values show a variation by a factor of up to 5 or even larger.

[3] = tested on: 6 Hz refractory seizure model; conditions: in vivo; cited from earlier work
[4] = tested on: glutamate transmission; conditions: mouse cortical neurons; cited from earlier work
[5] = tested on: lithium-pilocarpine-induced status epilepticus; conditions: in vivo; cited from earlier work
[6] = tested on: motor coordination; assay: Rotarod test; type: in vivo, mice; conditions: drug alone at pharmacological doses
Description: The impaired motor function was quantified by the rotarod test in mice according to Dunham and Miya (1957). The rotarod test was undertaken by use of a rod of 3 cm diameter, rotating at constant speed of 6 rpm. In this test, an acute neurological deficit (adverse effects produced by AEDs) was indicated by the inability of the animals to maintain their equilibrium for at least 120 s on the rotating rod. The dose ratio assessed in this model was always 1:1. For comparison, each AED was tested alone at its ED50 and 50% of its ED50 in the 6 Hz model.

[7] = tested on: maximal electroshock seizure [MES]; conditions: in vivo; cited from earlier work
[8] = tested on: voltage gated sodium channels; conditions: cell/tissue culture; cited from earlier work
[9] = tested on: cobalt-homocysteine-induced status epilepticus; conditions: in vivo; cited from earlier work
[10] = Clinical population pharmacokinetic analysis
[11] = tested on: pattern of neuronal activation; conditions: 2-deoxy glucose technique; cited from earlier work
[12] = tested on: NMDA-evoked currents; conditions: cell/tissue culture; cited from earlier work
[13] = target: collapsing response mediator protein CRMP-2 (Homo sapiens, UniProt Q16555); assay: Modulation of CRMP-2; conditions: recent data
[14] = tested on: refractory self-sustaining status epilepticus; conditions: in vivo; cited from earlier work
[15] = tested on: sound-induced seizure; conditions: mouse, in vivo; cited from earlier work
[16] = tested on: neurotransmitter receptors or ion channels; conditions: more than 100 different sites; cited from earlier work
[17] = tested on: GABA currents; conditions: mouse cortical neurons; cited from earlier work
[18] = tested on: voltage gated sodium channels; assay: Voltage gated sodium channels in cell/tissue culture; type: cell-based; conditions: recent data

SMILES: NCC1(CC(=O)O)CCCCC1 [GBP, gabapentin]
- doses for antiseizure effect compared with those needed in the MES test [1]: significantly higher doses
- anticonvulsant effects against 6 Hz seizure [1]: dose-dependent anticonvulsant effects

SMILES: CC[C@@H](C(N)=O)N1CCCC1=O [LEV, levetiracetam]
- anticonvulsant effects against 6 Hz seizure [1]: dose-dependent anticonvulsant effects
- ED50 [2]: about 20 mg/kg body weight
- protection in the 6 Hz model [3]: complete protection

SMILES: CC1(C)O[C@@H]2[C@@H](CO[C@@]3(COS(N)(=O)=O)OC(C)(C)O[C@@H]23)O1 [TPM, topiramate]
- doses for antiseizure effect compared with those needed in the MES test [1]: significantly higher doses
- anticonvulsant effects against 6 Hz seizure [1]: dose-dependent anticonvulsant effects

SMILES: COC[C@@H](NC(C)=O)C(=O)NCc1ccccc1 [LCM, R-2-acetamido-N-benzyl-3-methoxypropionamide]
- effect on glutamate transmission [4]: inhibited glutamate transmission indirectly
- activity against status epilepticus [5]: effective
- rotarod performance [6]: did not impair rotarod performance
- anticonvulsant activity [7]: anticonvulsant activity has been shown
- effects at voltage gated sodium channels [8]: no effects
- activity against status epilepticus [9]: effective
- effect on plasma levels of AEDs or vice versa [10]: no evidence for any effect
- potency compared to the other tested AEDs ([1]; 6 Hz model, drugs alone): highest potency
- anticonvulsant effects against 6 Hz seizure [1]: dose-dependent anticonvulsant effects; also recorded: fully protected
- effect on basal patterns [11]: no effect
- effect on the pattern of neuronal activation by 6 Hz induced seizures [11]: attenuated
- effects on NMDA-evoked currents [12]: no effects
- effect on CRMP-2 [13]: modulates
- activity against status epilepticus [14]: active
- anticonvulsant activity [15]: anticonvulsant activity has been shown
- binding [16]: neither LCM nor its metabolites bind
- effect on GABA currents [17]: increased GABA currents
- anticonvulsant activity [3]: anticonvulsant activity has been shown
- slow inactivation of voltage-gated sodium channels [18]: enhances slow inactivation

SMILES: Nc1nnc(-c2cccc(Cl)c2Cl)c(N)n1 [LTG, lamotrigine]
- doses for antiseizure effect compared with those needed in the MES test [1]: significantly higher doses
- anticonvulsant effects against 6 Hz seizure [1]: dose-dependent anticonvulsant effects
- ED50 [2]: about 85 mg/kg body weight

SMILES: NC(=O)N1c2ccccc2C=Cc2ccccc21 [CBZ, carbamazepine]
- doses for antiseizure effect compared with those needed in the MES test [1]: significantly higher doses
- anticonvulsant effects against 6 Hz seizure [1]: dose-dependent anticonvulsant effects

SMILES: O=C1NC(=O)C(c2ccccc2)(c2ccccc2)N1 [PHT, phenytoin]
- doses for antiseizure effect compared with those needed in the MES test [1]: significantly higher doses
- anticonvulsant effects against 6 Hz seizure [1]: dose-dependent anticonvulsant effects
